In the supplement of paper PMC7394473:

Assays:
Details in all cases: 72 h
[1] = tested on: U2OS; experiment: GR50 (concentration giving GR = 0.5)
Method: (§1)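 U2OS cells treated with full dose titrations of drug; live and dead cells counted by STACK microscopy (mKate2 nuclei, SYTOX Green) at 72 h, biological triplicates. GR and FV dose responses were fitted with 4-parameter logistic models (GR lower bound -1). GRADE (0-100) is the rescaled angle of a linear fit of FV versus GR at doses with GR >= 0, giving the percentage of the response due to cell death.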

[2] = tested on: U2OS; experiment: GRmin (fitted minimal GR value at highest effect) (GR value (dimensionless)); higher = less efficacious
Method: as §1

[3] = tested on: U2OS; experiment: fractional viability (live cells / total cells); higher = less cell death
Method: (§2)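 U2OS::Nuc-mKate2 cells seeded in 96-well plates and treated with eight- to ten-point half-log or log dilutions of drug in the presence of 50 nM SYTOX Green. Live (mKate2+) and dead (SYTOX+) cells were counted by IncuCyte STACK live-cell microscopy at 72 h; biological triplicates. GR is the normalised growth-rate inhibition value (Hafner 2016; 1 = untreated growth, <0 = population shrinking). FV is live/(live+dead) cells, not normalised.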

[4] = tested on: U2OS; experiment: drug GRADE (percent of response due to cell death) (% (0-100)); higher = more death-driven response
Method: as §1

[5] = tested on: U2OS; experiment: normalized growth rate inhibition value (GR) relative to untreated cells (GR value (dimensionless, 1 = untreated growth)); higher = less growth inhibition
Method: as §2

[6] = tested on: U2OS; experiment: FV IC50 (concentration giving fractional viability 0.5); higher = less potent killing
Method: as §1

O=C(Nc1ccc([N+](=O)[O-])cc1Cl)c1cc(Cl)ccc1O [Nicolsamide]
Details | FV IC50 [nM] | GR50 [µM] | GRmin | drug GRADE
[1] | – | 0.347 | – | –
[2] | – | – | -0.791 | –
[4] | – | – | – | 29.4
[6] | 803 | – | – | –

Details | fractional viability, [3] | normalized growth rate inhibition value, [5]
0.01 µM | 0.98 | 0.975
0.0316 µM | 0.975 | 1.01
0.1 µM | 0.979 | 0.934
0.316 µM | 0.942 | 0.557
1 µM | 0.33 | -0.319
3.16 µM | 0.0377 | -0.722
10 µM | 0.0138 | -0.81
31.6 µM | 0.0218 | -0.763

C[C@@H]1O[C@@H](O[C@H]2C[C@@H](O)[C@]3(CO)[C@H]4[C@H](O)C[C@]5(C)[C@@H](C6=CC(=O)OC6)CC[C@]5(O)[C@@H]4CC[C@]3(O)C2)[C@H](O)[C@H](O)[C@H]1O [Ouabain]
Details | FV IC50 [nM] | GR50 [µM] | GRmin | drug GRADE
[1] | – | 0.0164 | – | –
[2] | – | – | -0.593 | –
[4] | – | – | – | 30.9
[6] | 52.6 | – | – | –

Details | fractional viability, [3] | normalized growth rate inhibition value, [5]
0.01 µM | 0.977 | 0.661
0.0316 µM | 0.763 | 0.148
0.1 µM | 0.249 | -0.42
0.316 µM | 0.165 | -0.554
1 µM | 0.149 | -0.569
3.16 µM | 0.142 | -0.6
10 µM | 0.161 | -0.579
31.6 µM | 0.141 | -0.629

Cc1[nH]c2ccccc2c1CCNCc1ccc(/C=C/C(=O)NO)cc1 [Panobinostat]
Details | FV IC50 [nM] | GR50 [µM] | GRmin | drug GRADE
[1] | – | 0.383 | – | –
[2] | – | – | -0.832 | –
[4] | – | – | – | 55.3
[6] | 1670 | – | – | –

Details | fractional viability, [3] | normalized growth rate inhibition value, [5]
0.01 µM | 0.983 | 1.04
0.0316 µM | 0.984 | 1.05
0.1 µM | 0.979 | 0.794
0.316 µM | 0.933 | 0.61
1 µM | 0.685 | 0.00935
3.16 µM | 0.271 | -0.45
10 µM | 0.0583 | -0.679
31.6 µM | 0.00906 | -0.831

COC(=O)c1ccc([C@H]2c3[nH]c4ccccc4c3C[C@H](C(=O)OC)N2C(=O)CCl)cc1 [RSL3]
Details | FV IC50 [nM] | GR50 [µM] | GRmin | drug GRADE
[1] | – | 1.58 | – | –
[2] | – | – | -0.866 | –
[4] | – | – | – | 54.5
[6] | 3550 | – | – | –

Details | fractional viability, [3] | normalized growth rate inhibition value, [5]
0.01 µM | 0.983 | 1.05
0.0316 µM | 0.976 | 0.96
0.1 µM | 0.977 | 0.977
0.316 µM | 0.974 | 0.999
1 µM | 0.956 | 0.792
3.16 µM | 0.566 | -0.133
10 µM | 0.0831 | -0.646
31.6 µM | 0.00106 | -0.916

Cc1cc(Nc2ccc(NC(=O)c3ccc(Nc4ccnc5ccccc45)cc3)cc2)nc(N)n1 [SGI-1027]
Details | FV IC50 [nM] | GR50 [µM] | GRmin | drug GRADE
[1] | – | 1.15 | – | –
[2] | – | – | -0.799 | –
[4] | – | – | – | 37.1
[6] | 1620 | – | – | –

Details | fractional viability, [3] | normalized growth rate inhibition value, [5]
0.01 µM | 0.975 | 0.952
0.0316 µM | 0.977 | 1.02
0.1 µM | 0.98 | 0.932
0.316 µM | 0.975 | 0.948
1 µM | 0.87 | 0.642
3.16 µM | 0.0651 | -0.651
10 µM | 0.00115 | -0.88
31.6 µM | 0.0226 | -0.717

CNc1cc(-c2cccc(Cl)c2Cl)nc(N)n1 [TH287]
Details | FV IC50 [nM] | GR50 [µM] | GRmin | drug GRADE
[1] | – | 0.672 | – | –
[2] | – | – | -0.144 | –
[4] | – | – | – | 60
[6] | 3640 | – | – | –

Details | fractional viability, [3] | normalized growth rate inhibition value, [5]
0.01 µM | 0.973 | 0.956
0.0316 µM | 0.981 | 0.997
0.1 µM | 0.976 | 0.99
0.316 µM | 0.953 | 0.786
1 µM | 0.787 | 0.278
3.16 µM | 0.534 | 0.0764
10 µM | 0.383 | -0.106
31.6 µM | 0.476 | -0.187

CC(=O)O[C@H]1C(=O)[C@@]2(C)[C@H]([C@H](OC(=O)c3ccccc3)[C@]3(O)C[C@H](OC(=O)[C@H](O)[C@@H](NC(=O)c4ccccc4)c4ccccc4)C(C)=C1C3(C)C)[C@]1(OC(C)=O)CO[C@@H]1C[C@@H]2O [Taxol]
Details | FV IC50 [nM] | GR50 [µM] | GRmin | drug GRADE
[1] | – | 0.0907 | – | –
[2] | – | – | 0.104 | –
[4] | – | – | – | 75.6
[6] | 577 | – | – | –

Details | fractional viability, [3] | normalized growth rate inhibition value, [5]
0.000100578 µM | 0.991 | 1.13
0.000317827 µM | 0.991 | 1.2
0.00100433 µM | 0.991 | 1.23
0.00317369 µM | 0.988 | 1.14
0.0100289 µM | 0.98 | 1.06
0.0316912 µM | 0.897 | 0.813
0.100144 µM | 0.759 | 0.461
0.316456 µM | 0.591 | 0.211
1 µM | 0.44 | 0.0877

COc1cc2nccc(Oc3ccc(NC(=O)Nc4cc(C)on4)c(Cl)c3)c2cc1OC [Tivozanib]
Details | FV IC50 [nM] | GR50 [µM] | GRmin | drug GRADE
[1] | – | 3.87 | – | –
[2] | – | – | -0.878 | –
[4] | – | – | – | 7.57
[6] | 7340 | – | – | –

Details | fractional viability, [3] | normalized growth rate inhibition value, [5]
0.01 µM | 0.977 | 0.857
0.0316 µM | 0.982 | 1.17
0.1 µM | 0.98 | 1.05
0.316 µM | 0.977 | 1.03
1 µM | 0.977 | 0.812
3.16 µM | 0.949 | 0.681
10 µM | 0.229 | -0.421
31.6 µM | 0.0183 | -0.823

CC[C@@]1(O)C(=O)OCc2c1cc1n(c2=O)Cc2cc3c(CN(C)C)c(O)ccc3nc2-1 [Topotecan]
Details | FV IC50 [nM] | GR50 [µM] | GRmin | drug GRADE
[1] | – | 0.0151 | – | –
[2] | – | – | -0.0768 | –
[4] | – | – | – | 9.92
[6] | 7660 | – | – | –

Details | fractional viability, [3] | normalized growth rate inhibition value, [5]
0.00100578 µM | 0.985 | 1.09
0.00317827 µM | 0.985 | 0.979
0.0100433 µM | 0.978 | 0.698
0.0317369 µM | 0.94 | 0.105
0.100289 µM | 0.963 | 0.14
0.316912 µM | 0.923 | 0.0543
1.00144 µM | 0.846 | -0.044
3.16456 µM | 0.675 | -0.147
10 µM | 0.444 | -0.295

CC(C)[C@]12O[C@H]1[C@@H]1O[C@]13[C@]1(O[C@H]1C[C@H]1C4=C(CC[C@@]13C)C(=O)OC4)[C@@H]2O [Triptolide]
Details | FV IC50 [nM] | GR50 [µM] | GRmin | drug GRADE
[1] | – | 0.00421 | – | –
[2] | – | – | -0.262 | –
[4] | – | – | – | 8
[6] | 11.2 | – | – | –

Details | fractional viability, [3] | normalized growth rate inhibition value, [5]
3.16 pM | 0.981 | 1.03
31.6 pM | 0.979 | 1.01
0.000316 µM | 0.979 | 0.928
0.00316 µM | 0.957 | 0.633
0.0316 µM | 0.18 | -0.197
0.316 µM | 0.155 | -0.249
3.16 µM | 0.154 | -0.267
31.6 µM | 0.159 | -0.258

CC(C)[C@@H]1NC(=O)[C@H](C)OC(=O)[C@@H](C(C)C)NC(=O)[C@@H](C(C)C)OC(=O)[C@H](C(C)C)NC(=O)[C@H](C)OC(=O)[C@@H](C(C)C)NC(=O)[C@@H](C(C)C)OC(=O)[C@H](C(C)C)NC(=O)[C@H](C)OC(=O)[C@@H](C(C)C)NC(=O)[C@@H](C(C)C)OC1=O [Valinomycin]
Details | FV IC50 [nM] | GR50 [µM] | GRmin | drug GRADE
[1] | – | 0.0108 | – | –
[2] | – | – | -0.0918 | –
[4] | – | – | – | 34.4
[6] | 4060 | – | – | –

Details | fractional viability, [3] | normalized growth rate inhibition value, [5]
0.00100578 µM | 0.993 | 1.02
0.00317827 µM | 0.991 | 0.986
0.0100433 µM | 0.874 | 0.171
0.0317369 µM | 0.933 | 0.472
0.100289 µM | 0.685 | -0.0547
0.316912 µM | 0.737 | 0.0438
1.00144 µM | 0.675 | -0.0358
3.16456 µM | 0.553 | -0.0823
10 µM | 0.384 | -0.225

O=C(CCCCCCC(=O)Nc1ccccc1)NO [Vorinostat]
Details | FV IC50 [nM] | GR50 [µM] | GRmin | drug GRADE
[1] | – | 0.274 | – | –
[2] | – | – | -0.601 | –
[4] | – | – | – | 28
[6] | 765 | – | – | –

Details | fractional viability, [3] | normalized growth rate inhibition value, [5]
0.00100578 µM | 0.992 | 0.932
0.00317827 µM | 0.99 | 1.11
0.0100433 µM | 0.991 | 0.89
0.0317369 µM | 0.985 | 0.906
0.100289 µM | 0.973 | 0.901
0.316912 µM | 0.875 | 0.396
1.00144 µM | 0.365 | -0.201
3.16456 µM | 0.16 | -0.515
10 µM | 0.091 | -0.591

COCC[n+]1c2c(n(Cc3cnccn3)c1C)C(=O)c1ccccc1C2=O [YM155]
Details | FV IC50 [nM] | GR50 [µM] | GRmin | drug GRADE
[1] | – | 0.00769 | – | –
[2] | – | – | -0.913 | –
[4] | – | – | – | 44.1
[6] | 36.4 | – | – | –

Details | fractional viability, [3] | normalized growth rate inhibition value, [5]
3.16 pM | 0.981 | 0.943
31.6 pM | 0.981 | 1
0.000316 µM | 0.983 | 1.02
0.00316 µM | 0.962 | 0.777
0.01 µM | 0.852 | 0.107
0.0316 µM | 0.59 | 0.0141
0.1 µM | 0.0412 | -0.788
0.316 µM | 0.00681 | -0.79
1 µM | 0.00318 | -0.94
3.16 µM | 0.00039 | -0.882
10 µM | 0 | -0.967
31.6 µM | 0.0019 | -0.859
